The record followed here is patent US20250213736A1, “SCISSION-ENHANCED NUCLEAR IMAGING AND TREATMENT” (The General Hospital Corporation, priority 2022, published 2025).

This series can be described thus: LCMS analysis of DOTA-TCO-NHS linker immolation after Tz treatment in PBS (pH 7.4). The format is physicochemical. The conditions noted are these: PBS with tetrazine (Tz-amine) added; 100 μM DOTA linker treated with 10 mM Tz-amine, PBS pH 7.4, LCMS; read-out: kinetics of linker immolation T1/2. On the procedure:
FIG. 6A contains line plots showing LCMS analysis of DOTA-TCO-NHS with varying ratios of HK-Tz added in PBS (pH 7.4). DOTA-TCO-NHS was synthesized as described in FIG. 3C, Characterized by NMR and then subjected to Tz treatment. Aliquots of 100 μM DOTA linker were treated with 10 mM Tz-amine and analyzed by LCMS after 30 min and 3 hours to determine the percentage of intact linker remaining. Shown are the kinetics of linker immolation (T1/2 12 min).

In the case of `CN(CC(=O)NCCCNC(=O)CCOCCOCCOCCOCCC(=O)ON1C(=O)CCC1=O)C(=O)OC1/C=C/C(OC(=O)N(C)CC(=O)NCCCNC(=O)CN2CCN(CC(=O)O)CCN(CC(=O)O)CCN(CC(=O)O)CC2)CCCC1` (stereo not shown) [DOTA-TCO-NHS], the half-life at 100 μM was 12 min.
